pEC50: −log10 of the molar value. The source made the active and inactive calls. The calls are words filed in the database; no cut-off is given here.
Legend:
[1] = Upregulation of ABCA1 expression in human HepG2 cells expressing luciferase plasmid assessed as maximal increase incubated for 24 hrs by luciferase reporter gene assay relative to control; assay type: functional
[2] = Upregulation of ABCA1 expression in human HepG2 cells expressing luciferase plasmid assessed as maximal fold increase incubated for 24 hrs by luciferase reporter gene assay relative to control; assay type: functional
[3] = Upregulation of ABCA1 expression in human HepG2 cells expressing luciferase plasmid incubated for 24 hrs by luciferase reporter gene assay; assay type: functional, cell-based; details: HepG2, 24 h
[4] = Upregulation of ABCA1 mRNA expression in mouse RAW264.7 cells assessed as maximal fold increase at 5 uM incubated for 24 hrs by RT-qPCR analysis relative to control; assay type: functional
RAW264.7 [5] = assay: Upregulation of ABCA1 protein expression in mouse RAW264.7 cells incubated for 24 hrs by western blot analysis; assay type: functional, cell-based; details: dose microM 2.5-10, time 24.0 hrs
HepG2 [6] = assay: Cytotoxicity against human HepG2 cells assessed as reduction in cell viability incubated for 72 hrs measured by CCK8 assay; assay type: cell-based; details: hepg2, 72 h
RAW264.7 [7] = assay: Upregulation of ABCA1 protein expression in mouse RAW264.7 cells at 2.5 to 10 uM incubated for 24 hrs by western blot analysis; assay type: functional, cell-based; details: dose microM 2.5-10, time 24.0 hrs
RAW264.7 [8] = assay: Upregulation of ABCA1 mRNA expression in mouse RAW264.7 cells at 2.5 to 10 uM incubated for 24 hrs by RT-qPCR analysis; assay type: functional, cell-based; details: dose microM 2.5-10, time 24.0 hrs
[9] = Potency index, ration of WY06 EC50 to test compound EC50 for upregulation of ABCA1 expression in human HepG2 cells expressing luciferase plasmid incubated for 24 hrs by luciferase reporter gene assay; assay type: functional
RAW264.7 [10] = assay: Upregulation of ABCA1 mRNA expression in mouse RAW264.7 cells at 5 uM incubated for 24 hrs by RT-qPCR analysis; assay type: functional, cell-based
RAW264.7 [11] = assay: Upregulation of ApoA-I protein expression in mouse RAW264.7 cells at 2.5 to 10 uM by western blot analysis; assay type: functional, cell-based; details: dose microM 2.5-10
[12] = Upregulation of ABCA1 mRNA expression in mouse RAW264.7 cells assessed as maximal upregulation at 10 uM incubated for 24 hrs by RT-qPCR analysis relative to control; assay type: functional
RAW264.7 [13] = assay: Induction of cholesterol efflux in mouse RAW264.7 cells assessed as decrease in cellular 22-NBD-cholesterol content at 2.5 to 10 uM incubated for 24 hrs by DAPI staining based fluorescence analysis; assay type: functional, cell-based; details: dose microM 2.5-10, time 24.0 hrs
HepG2 [14] = assay: Upregulation of ABCA1 expression in human HepG2 cells expressing luciferase plasmid incubated for 24 to 48 hrs by luciferase reporter gene assay; assay type: functional, cell-based; details: dose microM 0.78-50, time hrs 24-48
[15] = Upregulation of ABCA1 protein expression in mouse RAW264.7 cells assessed as maximal increase at 10 uM incubated for 24 hrs by western blot analysis relative to control; assay type: functional

pEC50 [3]	SMILES	Activity [1] [%]	Activity (HepG2 [6])	other results
5.23	N#CCN(c1nc2ccc(Cl)cc2s1)S(=O)(=O)c1cccc(N)c1	168	Non-Toxic	fold change (FC) [2]: 1.68; fold change (FC) [4]: 1.5; Activity (RAW264.7 [5]): Dose-dependent effect
4.48	C=CCN(c1nc2ccccc2s1)S(=O)(=O)c1ccc(N)cc1	115		
4.98	C=CCN(c1nc2ccc(Cl)cc2s1)S(=O)(=O)c1ccc(N)cc1	135		
5.20	CCOC(=O)CN(c1nc2ccc(OC)cc2s1)S(=O)(=O)c1ccc(N)cc1	138	Non-Toxic	fold change (FC) [2]: 1.38; Activity (RAW264.7 [7]): inactive; Activity (RAW264.7 [8]): inactive
6.43	CCOC(=O)CN(c1nc2ccc(Cl)cc2s1)S(=O)(=O)c1ccc(N)cc1	174	Non-Toxic	fold change (FC) [2]: 1.74; Ratio EC50 [9]: >=15; Activity (RAW264.7 [5]): Dose-dependent effect; Activity (RAW264.7 [10]): Active
5.13	C=CCN(c1nc2ccc(F)cc2s1)S(=O)(=O)c1ccc(N)cc1	135		
5.91	CCOC(=O)CN(c1nc2ccccc2s1)S(=O)(=O)c1ccc(N)cc1	209	Non-Toxic	
5.07	N#CCN(c1nc2ccccc2s1)S(=O)(=O)c1ccc(N)cc1	157		
4.59	C=CCN(c1nc2ccc(F)cc2s1)S(=O)(=O)c1cccc(N)c1	152		
5.59	N#CCN(c1nc2ccc(F)cc2s1)S(=O)(=O)c1ccc(N)cc1	163		
< 4.30	N#CCN(c1nc2ccccc2s1)S(=O)(=O)c1cccc(N)c1	124		
< 4.30	C=CCN(c1nc2ccccc2s1)S(=O)(=O)c1cccc(N)c1	136		
6.01	CCOC(=O)CN(c1nc2ccc(F)cc2s1)S(=O)(=O)c1ccc(N)cc1	167	Non-Toxic	
6.39	N#CCN(c1nc2ccc(Cl)cc2s1)S(=O)(=O)c1ccc(N)cc1	206	Non-Toxic	Ratio EC50 [9]: >15; Activity (RAW264.7 [11]): inactive; Activity [12]: 210%; Activity (RAW264.7 [13]): Active; Activity (RAW264.7 [5]): Dose-dependent effect; Activity (HepG2 [14]): Dose-dependent effect; Activity [15]: 240%

Reference: ChEMBL document CHEMBL4699402, “Identification of N-benzothiazolyl-2-benzenesulfonamides as novel ABCA1 expression upregulators” (RSC Med Chem, 2020)
